Measurements published in EP4635500A1, “THERAPEUTIC AGENT FOR BACTERIAL INFECTION” (Sumitomo Pharma Co., Ltd., priority 2022, dated 2024).
Converted amounts (≈) assume the structure as drawn. Read-outs that look alike come from different tables or passages of the source.

System: Enterobacterales
Assay: MIC, broth microdilution, CDC/FDA Antibiotic Resistance Isolate Bank (Example 7, Tables 8, 11, 12)
Format: cell-based
Conditions: read-out: MIC

## O=C(O)c1cn(C2CC2)c2cc(N3CCNCC3)c(F)cc2c1=O [Ciprofloxacin, ciprofloxacin]
Klebsiella ozaenae, KUB No. 5548, AR Bank# 51
  MIC: > 64 µg/mL
Klebsiella pnemnonine, KUB No. 5758, AR Bank # 362
  MIC: > 64 µg/mL
Klebsiella pneumoniae, KUB No. 55, AR Bank# 47
  MIC: > 64 µg/mL
Klebsiella pneumoniae, KUB No. 5531, AR Bank# 34
  MIC: 0.5 µg/mL (≈ 1.51 µM)
Klebsiella pneumoniae, KUB No. 5537, AR Bank# 40
  MIC: > 64 µg/mL
Klebsiella pneumoniae, KUB No. 5540, AR Bank# 43
  MIC: 4 µg/mL (≈ 12.1 µM)
Klebsiella pneumoniae, KUB No. 5541, AR Bank# 44
  MIC: > 64 µg/mL
Klebsiella pneumoniae, KUB No. 5543, AR Bank# 46
  MIC: > 64 µg/mL
Klebsiella pneumoniae, KUB No. 5546, AR Bank# 49
  MIC: > 64 µg/mL
Klebsiella pneumoniae, KUB No. 5563, AR Bank # 66
  MIC: > 64 µg/mL
Klebsiella pneumoniae, KUB No. 5565, AR Bank # 68
  MIC: > 64 µg/mL
Klebsiella pneumoniae, KUB No. 5572, AR Bank # 75
  MIC: > 64 µg/mL
Klebsiella pneumoniae, KUB No. 5573, AR Bank # 76
  MIC: 0.5 µg/mL (≈ 1.51 µM)
Klebsiella pneumoniae, KUB No. 5576, AR Bank # 79
  MIC: > 64 µg/mL
Klebsiella pneumoniae, KUB No. 5584, AR Bank # 87
  MIC: > 64 µg/mL
Klebsiella pneumoniae, KUB No. 5594, AR Bank # 97
  MIC: > 64 µg/mL
Klebsiella pneumoniae, KUB No. 5595, AR Bank # 98
  MIC: > 64 µg/mL
Klebsiella pneumoniae, KUB No. 5603, AR Bank # 106
  MIC: > 64 µg/mL
Klebsiella pneumoniae, KUB No. 5604, AR Bank # 107
  MIC: > 64 µg/mL
Klebsiella pneumoniae, KUB No. 5606, AR Bank # 109
  MIC: > 64 µg/mL
Klebsiella pneumoniae, KUB No. 5614, AR Bank # 117
  MIC: 8 µg/mL (≈ 24.1 µM)
Klebsiella pneumoniae, KUB No. 5617, AR Bank # 120
  MIC: > 64 µg/mL
Klebsiella pneumoniae, KUB No. 5622, AR Bank # 125
  MIC: > 64 µg/mL
Klebsiella pneumoniae, KUB No. 5626, AR Bank # 129
  MIC: > 64 µg/mL
Klebsiella pneumoniae, KUB No. 5635, AR Bank # 138
  MIC: > 64 µg/mL
Klebsiella pneumoniae, KUB No. 5637, AR Bank # 140
  MIC: > 64 µg/mL
Klebsiella pneumoniae, KUB No. 5638, AR Bank # 141
  MIC: > 64 µg/mL
Klebsiella pneumoniae, KUB No. 5643, AR Bank # 146
  MIC: > 64 µg/mL
Klebsiella pneumoniae, KUB No. 5645, AR Bank # 148
  MIC: > 64 µg/mL
Klebsiella pneumoniae, KUB No. 5650, AR Bank # 153
  MIC: > 64 µg/mL
Klebsiella pneumoniae, KUB No. 5657, AR Bank # 160
  MIC: 0.06 µg/mL (≈ 0.181 µM)
Klebsiella pneumoniae, KUB No. 5757, AR Bank # 361
  MIC: > 64 µg/mL
Klebsiella pneumoniae, KUB No. 5760, AR Bank # 364
  MIC: > 64 µg/mL
Klebsiella pneumoniae, Klebsiella pneumoniae KUB No. 5784, AR Bank #438
  MIC: > 64 µg/mL
Klebsiella pneumoniae, Klebsiella pneumoniae KUB No. 5797, AR Bank #453
  MIC: > 64 µg/mL
Klebsiella pneumoniae, Klebsiella pneumoniae KUB No. 5809, AR Bank #504
  MIC: 2 µg/mL (≈ 6.04 µM)
Klebsiella pneumoniae, Klebsiella pneumoniae KUB No. 5810, AR Bank #505
  MIC: 0.5 µg/mL (≈ 1.51 µM)
Klebsiella pneumoniae, Klebsiella pneumoniae KUB No. 5811, AR Bank #506
  MIC: 2 µg/mL (≈ 6.04 µM)
Klebsiella pneumoniae, Klebsiella pneumoniae KUB No. 5812, AR Bank #507
  MIC: > 64 µg/mL
Klebsiella pneumoniae, Klebsiella pneumoniae KUB No. 5828, AR Bank #523
  MIC: 4 µg/mL (≈ 12.1 µM)
Klebsiella pneumoniae, Klebsiella pneumoniae KUB No. 5830, AR Bank #525
  MIC: > 64 µg/mL
Kluyvera ascorbata, KUB No. 5641, AR Bank # 144
  MIC: 1 µg/mL (≈ 3.02 µM)
Morganella morganii, KUB No. 5554, AR Bank# 57
  MIC: > 64 µg/mL
Morganella morganii, Morganella morganii KUB No. 5824, AR Bank #519
  MIC: 0.06 µg/mL (≈ 0.181 µM)
Proteus mirabilis, KUB No. 5652, AR Bank # 155
  MIC: > 64 µg/mL
Proteus mirabilis, KUB No. 5653, AR Bank # 156
  MIC: 4 µg/mL (≈ 12.1 µM)
Proteus mirabilis, KUB No. 5656, AR Bank # 159
  MIC: 1 µg/mL (≈ 3.02 µM)
Proteus mirabilis, KUB No. 5775, AR Bank # 379
  MIC: 4 µg/mL (≈ 12.1 µM)
Providencia rettgeri, KUB No. 5579, AR Bank # 82
  MIC: 0.06 µg/mL (≈ 0.181 µM)
Serratia marcescens, KUB No. 5588, AR Bank # 91
  MIC: 0.06 µg/mL (≈ 0.181 µM)
Serratia marcescens, KUB No. 5596, AR Bank # 99
  MIC: 0.06 µg/mL (≈ 0.181 µM)
Serratia marcescens, KUB No. 5618, AR Bank # 121
  MIC: 0.06 µg/mL (≈ 0.181 µM)
Serratia marcescens, KUB No. 5619, AR Bank # 122
  MIC: 0.06 µg/mL (≈ 0.181 µM)
Serratia marcescens, KUB No. 5620, AR Bank # 123
  MIC: 0.06 µg/mL (≈ 0.181 µM)
Serratia marcescens, KUB No. 5621, AR Bank # 124
  MIC: 0.06 µg/mL (≈ 0.181 µM)
Serratia marcescens, KUB No. 5627, AR Bank # 130
  MIC: 0.06 µg/mL (≈ 0.181 µM)
Serratia marcescens, KUB No. 5628, AR Bank # 131
  MIC: 0.06 µg/mL (≈ 0.181 µM)
Serratia marcescens, Serratia marcescens KUB No. 5822, AR Bank #517
  MIC: 1 µg/mL (≈ 3.02 µM)
Serratia marcescens, Serratia marcescens KUB No. 5825, AR Bank #520
  MIC: 1 µg/mL (≈ 3.02 µM)
